Experiments:
[1] = pH of [68Ga]PSMA-11 solution (acceptance 4.0-5.0); type: physicochemical
Experimental: (§1) 100 μl of the ascorbic acid solution (equivalent to 25 mg ascorbic acid) was taken from vial 3, and was filtered through a 5 μm filter needle. The sodium ascorbate solution was subsequently added to vail 2, and mixed thoroughly. The obtained content of vial 2 was added to vial 1, and again mixed thoroughly. To this obtained vail 1, the eluate, comprising the gallium-68, was added to obtain a gallium-68 labelled PSMA-11 solution. Optionally, a 2.5 ml 0.9% sodium chloride solution may be added to increase the volume and/or to amend the osmolality to be under 1000 mOsm/kg.
The pH of the gallium-68 labelled PSMA-11 solution was 4.5 immediately after the radiolabelling procedure and was unchanged after 4 hours.
as §1, with “a Gallium-68” for “a gallium-68”, “a” for “a 2.5 ml 0.9%”, “volume of the obtained Gallium-68 labelled PSMA-11 solution” for “volume”, “mOsm/kg. The pH of the gallium-68 labelled PSMA-11 solution was 4.5 immediately after the radiolabelling procedure and was unchanged after 4 hours.” for “mOsm/kg.”
as §1, with “a Gallium-68” for “a gallium-68”, “a” for “a 2.5 ml 0.9%”, “volume of the obtained Gallium-68 labelled PSMA-11 solution” for “volume”, “mOsm/kg. The pH of the gallium-68 labelled PSMA-11 solution was 4.5 immediately after the radiolabelling procedure and was unchanged after 6 hours.” for “mOsm/kg.”
(§2) Table 1 to Table 5 show the results of various radiolabelling experiments on radiochemical purity and the chelation yield. The radiolabelling experiments in the tables are carried out as described in: • Example 1 for when the gallium-68 source is GE Liquid target generator and EZAG GalliaPharm generator; • Example 2 for when the gallium-68 source is IRE Galli Eo generator; • Example 3 for when the gallium-68 source is GE solid target generator;
(§3) However, the experiments were carried out with the amount of ascorbic acid as indicated in the Tables 1 to 5, and the activity as indicated in the Tables 1 to 5. Radiochemical purities were measured at various times (T0, T1, T4, T6) after the radiolabelled experiments have been conducted.
(§4) The kits of Example 1, Example 2 or Example 3, with amounts of ascorbic acid as set out in Table 7 were used in the experiments for the ascorbic acid bracketing matrix. Three strengths of [^68Ga]Ga-PSMA-11 will be tested, i.e. 50 mCi/ml, 7 mCi/ml and 1 mCi/ml. Radiochemical purity was determined at different time points (TO, T1, T4 or T6), as set out in Table 7.

[2] = Drug product stability against radiolysis with ascorbic acid; type: physicochemical
Experimental: as §2, §3, §4

For O=C([O-])CN(CCN(CC(=O)[O-])Cc1cc(CCC(=O)NCCCCCC(=O)NCCCC[C@H](NC(=O)N[C@@H](CCC(=O)O)C(=O)O)C(=O)O)ccc1[O-])Cc1cc(CCC(=O)O)ccc1[O-].[68Ga+3].[OH3+] [[^68Ga]PSMA-11, gallium-68 radiolabelled Glu-urea-Lys-HBED-CC (gozetotide or PSMA-11)], the pH ([1]; bracketing ~1 mCi/mL, 18.75 mg ascorbic acid, 8.9-11.5 mCi, 0.85-1.09 mCi/mL, IRE Galli Eo, n=2, T1 (1 h)) was “C (C = Conforms to specifications)”, the pH ([1]; bracketing ~1 mCi/mL, 25 mg ascorbic acid, 8.8-12.7 mCi, 0.84-1.21 mCi/mL, 2 × IRE Galli Eo, n=2, T0) was “C (C = Conforms to specifications)” and the pH ([1]; bracketing ~1 mCi/mL, 25 mg ascorbic acid, 8.8-12.7 mCi, 0.84-1.21 mCi/mL, 2 × IRE Galli Eo, n=2, T1 (1 h)) was “C (C = Conforms to specifications)”. The pH ([1]; bracketing ~1 mCi/mL, 31.25 mg ascorbic acid, 15.2-26.9 mCi, 1.44-2.54 mCi/mL, EZAG GalliaPharm, n=2, T0) was “C (C = Conforms to specifications)”, the pH ([1]; bracketing ~1 mCi/mL, 31.25 mg ascorbic acid, 15.2-26.9 mCi, 1.44-2.54 mCi/mL, EZAG GalliaPharm, n=2, T1 (1 h)) was “C (C = Conforms to specifications)” and the pH ([1]; bracketing ~7 mCi/mL, 18.75 mg ascorbic acid, 51.0-58.0 mCi, 5.55-6.5 mCi/mL, IRE Galli Eo, n=2, T0) was “C (C = Conforms to specifications)”. The pH ([1]; bracketing ~7 mCi/mL, 18.75 mg ascorbic acid, 51.0-58.0 mCi, 5.55-6.5 mCi/mL, IRE Galli Eo, n=2, T4 (4 h)) was “C (C = Conforms to specifications)”, the pH ([1]; bracketing ~7 mCi/mL, 25 mg ascorbic acid, 51.6-74.4 mCi, 4.56-6.92 mCi/mL, 3 × GE Liquid Target, 3 × IRE Galli Eo, 3 × EZAG GalliaPharm, n=9, T0) was “C (C = Conforms to specifications)” and the pH ([1]; bracketing ~7 mCi/mL, 25 mg ascorbic acid, 51.6-74.4 mCi, 4.56-6.92 mCi/mL, 3 × GE Liquid Target, 3 × IRE Galli Eo, 3 × EZAG GalliaPharm, n=9, T4 (4 h)) was “C (C = Conforms to specifications)”. The pH ([1]; bracketing ~7 mCi/mL, 31.25 mg ascorbic acid, 61.5-62.0 mCi, 5.85-5.88 mCi/mL, EZAG GalliaPharm, n=2, T0) was “C (C = Conforms to specifications)”, the pH ([1]; bracketing ~7 mCi/mL, 31.25 mg ascorbic acid, 61.5-62.0 mCi, 5.85-5.88 mCi/mL, EZAG GalliaPharm, n=2, T4 (4 h)) was “C (C = Conforms to specifications)” and the pH ([1]; bracketing ~50 mCi/mL, 20 mg ascorbic acid, 514-544 mCi, 48.3-51.9 mCi/mL, GE Solid Target, n=2, T0) was “C (C = Conforms to specifications)”. For the same compound, the pH ([1]; bracketing ~50 mCi/mL, 20 mg ascorbic acid, 514-544 mCi, 48.3-51.9 mCi/mL, GE Solid Target, n=2, T6 (6 h)) was “C (C = Conforms to specifications)”, the pH ([1]; bracketing ~50 mCi/mL, 25 mg ascorbic acid, 537-551 mCi, 50.2-51.6 mCi/mL, GE Solid Target, n=3, T0) was “C (C = Conforms to specifications)” and the pH ([1]; bracketing ~50 mCi/mL, 25 mg ascorbic acid, 537-551 mCi, 50.2-51.6 mCi/mL, GE Solid Target, n=3, T6 (6 h)) was “C (C = Conforms to specifications)”. The pH ([1]; bracketing ~50 mCi/mL, 31.25 mg ascorbic acid, 500-544 mCi, 48.1-51.7 mCi/mL, GE Solid Target, n=2, T0) was “C (C = Conforms to specifications)”, the pH ([1]; bracketing ~50 mCi/mL, 31.25 mg ascorbic acid, 500-544 mCi, 48.1-51.7 mCi/mL, GE Solid Target, n=2, T6 (6 h)) was “C (C = Conforms to specifications)” and the pH ([1]; control, 0 mg ascorbic acid, 70 mCi, GE Solid Target, n=1, T0) was “C (C = all results conform to specifications)”. The pH ([1]; control, 0 mg ascorbic acid, 70 mCi, GE Solid Target, n=1, T4 (4 h)) was “C (C = all results conform to specifications)”, the pH ([1]; validation batches, 25 mg ascorbic acid, 51.6-62.7 mCi, 4.56-5.88 mCi/mL, IRE Galli Eo, n=3, T0) was “C (C = all results conform to specifications)” and the pH ([1]; validation batches, 25 mg ascorbic acid, 51.6-62.7 mCi, 4.56-5.88 mCi/mL, IRE Galli Eo, n=3, T4 (4 h)) was “C (C = all results conform to specifications)”. The pH ([1]; validation batches, 25 mg ascorbic acid, 53.3-74.4 mCi, 5.03-6.92 mCi/mL, GE Liquid target, n=3, T0) was “C (C = all results conform to specifications)”, the pH ([1]; validation batches, 25 mg ascorbic acid, 53.3-74.4 mCi, 5.03-6.92 mCi/mL, GE Liquid target, n=3, T4 (4 h)) was “C (C = all results conform to specifications)” and the pH ([1]; validation batches, 25 mg ascorbic acid, 65.0-66.4 mCi, 5.74-6.15 mCi/mL, EZAG GalliaPharm, n=3, T0) was “C (C = all results conform to specifications)”. For the same compound, the pH ([1]; validation batches, 25 mg ascorbic acid, 65.0-66.4 mCi, 5.74-6.15 mCi/mL, EZAG GalliaPharm, n=3, T4 (4 h)) was “C (C = all results conform to specifications)”, the pH ([1]; validation batches, 25 mg ascorbic acid, 537-551 mCi, 50.2-51.6 mCi/mL, GE Solid Target, n=3, T0) was “C (C = all results conform to specifications)” and the pH ([1]; validation batches, 25 mg ascorbic acid, 537-551 mCi, 50.2-51.6 mCi/mL, GE Solid Target, n=3, T6 (6 h)) was “C (C = all results conform to specifications)”. The pH ([1]; validation batches, 25 mg ascorbic acid, 555-564 mCi, 51.1-52.7 mCi/mL, ARTMS Solid Target, n=3, T0) was “C (C = all results conform to specifications)”, the pH ([1]; validation batches, 25 mg ascorbic acid, 555-564 mCi, 51.1-52.7 mCi/mL, ARTMS Solid Target, n=3, T6 (6 h)) was “C (C = all results conform to specifications)” and the “time for which stability is maintained” value ([2]; 20 mg ascorbic acid, highest strength 48.3-51.9 mCi/mL (worst case), Table 8) was “up to 6 hours”. The “time for which the formulation is stabilized” value ([2]; 25 mg ascorbic acid, Table 3) was “up to 4 hours”, the “time for which ascorbic acid is an effective radio-stabilizer / stability maintained” value ([2]; 10-50 mg ascorbic acid, 458-560 mCi starting activity, 48.3-71.1 mCi/mL, Table 2) was “up to 6 hours” and the stability ([2]; 18.75-31.25 mg ascorbic acid, 5.1-5.88 mCi/mL and 0.84-2.54 mCi/mL, Tables 9 and 10) was “stability of the [^68Ga]PSMA-11 is maintained”.
